A word on the IC50: it is the point on the concentration scale where inhibition reaches its midpoint. The EC50 is the concentration that produces a half-maximal response. A higher EC50 goes with lower potency in that assay.

In test [1] the target is T1, Peroxisome proliferator-activated receptor alpha (Homo sapiens, UniProt Q07869).
T1 sequence (Q07869 whole entry): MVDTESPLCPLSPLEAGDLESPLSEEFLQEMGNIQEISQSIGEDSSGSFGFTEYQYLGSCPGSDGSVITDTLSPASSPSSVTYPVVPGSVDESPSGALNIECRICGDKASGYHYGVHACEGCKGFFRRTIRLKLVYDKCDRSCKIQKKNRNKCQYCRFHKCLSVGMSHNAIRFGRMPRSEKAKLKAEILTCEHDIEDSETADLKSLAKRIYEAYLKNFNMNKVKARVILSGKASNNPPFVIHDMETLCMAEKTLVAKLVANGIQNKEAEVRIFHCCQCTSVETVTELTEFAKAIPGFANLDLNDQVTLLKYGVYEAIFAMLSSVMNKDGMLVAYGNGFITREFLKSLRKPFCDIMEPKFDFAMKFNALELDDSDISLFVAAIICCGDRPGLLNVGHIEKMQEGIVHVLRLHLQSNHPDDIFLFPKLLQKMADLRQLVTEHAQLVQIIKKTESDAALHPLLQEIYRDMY

Test [2] addresses T2, Peroxisome proliferator-activated receptor delta (Homo sapiens, UniProt Q03181).
T2 sequence (Q03181 whole entry): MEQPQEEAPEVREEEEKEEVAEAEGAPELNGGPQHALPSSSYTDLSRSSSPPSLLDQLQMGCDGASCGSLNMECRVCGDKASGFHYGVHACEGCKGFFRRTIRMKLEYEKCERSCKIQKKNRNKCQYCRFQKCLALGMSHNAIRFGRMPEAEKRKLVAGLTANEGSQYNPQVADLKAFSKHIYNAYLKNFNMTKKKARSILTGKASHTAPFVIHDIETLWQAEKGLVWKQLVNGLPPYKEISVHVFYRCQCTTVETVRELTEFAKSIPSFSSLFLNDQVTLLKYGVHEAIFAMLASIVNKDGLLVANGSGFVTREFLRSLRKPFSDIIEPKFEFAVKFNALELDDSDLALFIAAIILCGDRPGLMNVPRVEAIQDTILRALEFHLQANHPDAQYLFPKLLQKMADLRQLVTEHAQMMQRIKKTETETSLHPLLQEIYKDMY

Test [3] addresses T2, Peroxisome proliferator-activated receptor delta. The test is classed as functional, cell-based, HepG2.

SMILES strings stand for the structures. Some results are limits rather than exact numbers.

As to `O=C(O)Cn1ccc2cc(OCc3ccccc3COc3ccc(C(F)(F)F)cc3)ccc21`, the IC50 in test [1] was greater than 10 µM; in test [2] it was 0.734 µM. It took 3.08 µM to reach a half-maximal effect in test [3] (EC50).
`O=C(O)Cn1ccc2cc(OCc3cccc(COc4ccc(C(F)(F)F)cc4)c3)ccc21`: the results for the IC50 in test [1] and in test [2] were 0.179 µM and 0.013 µM, respectively. The molecule further displayed an EC50 in test [3] of 0.254 µM.
The corresponding values for `Cc1nc(C(F)(F)F)sc1CSc1ccc2c(ccn2CC(=O)O)c1` are 0.172 µM, 0.0028 µM and 0.004 µM.
`Cc1nc(-c2ccc(C(F)(F)F)cc2)sc1COc1ccc2c(CC(=O)O)csc2c1` registered an IC50 in test [1] of 0.482 µM.
As for `O=C(O)Cc1csc2cc(OCc3cc(-c4ccc(Cl)cc4)on3)ccc12`, the IC50 in test [1] is 3.82 µM; in test [2], 0.0077 µM. In test [3], this molecule gave an EC50 of 0.226 µM.
As for `O=C(O)Cc1coc2cc(OCc3cc(-c4ccc(C(F)(F)F)cc4)on3)ccc12`, the IC50 came out at 1.42 µM in test [1] and 0.025 µM in test [2]. In addition, the response in test [3] was half-maximal at 1.61 µM (EC50).
With `Cc1nc(-c2ccc(C(F)(F)F)cc2)sc1COc1cc(Cl)c2c(CC(=O)O)csc2c1`, the values for the IC50 in test [1] and in test [2] were 1.04 µM and 0.058 µM, respectively. Also, a half-maximal effect in test [3] (EC50) was put at 0.227 µM.
As to `Cc1cc2c(CC(=O)O)csc2cc1OCc1cc(-c2ccc(Cl)cc2)on1`, the figures for the IC50 in test [1] and in test [2] were 5.81 µM and 0.037 µM, respectively. In test [3], this molecule came in with an EC50 of 0.656 µM.
In the case of `O=C(O)Cc1csc2cc(OCc3cc(-c4ccc(Cl)cc4)on3)cc(Cl)c12`, the IC50 in test [1] came out at 3.84 µM; in test [2], 0.375 µM. The molecule also displayed an EC50 in test [3] of 6.36 µM.
In the case of `Cc1cc(OCc2cc(-c3ccc(C(F)(F)F)cc3)on2)cc2scc(CC(=O)O)c12`, the IC50 in test [1] was found to be 1.47 µM; in test [2], 0.037 µM. This molecule returned an EC50 in test [3] of 0.561 µM.
For the molecule `O=C(O)Cc1csc2cc(OCc3ccccc3COc3ccc(C(F)(F)F)cc3)ccc12`, the IC50 in test [1] is 7.86 µM; in test [2], 0.244 µM. In addition, the response in test [3] was half-maximal at 2.23 µM (EC50).
With `Cc1cc2c(CC(=O)O)csc2cc1OCc1ccccc1COc1ccc(C(F)(F)F)cc1`, in test [1], the IC50 stood at 4.68 µM.
`O=C(O)Cc1csc2cc(OCc3cccc(COc4ccc(C(F)(F)F)cc4)c3)ccc12` displayed an IC50 in test [1] of 0.963 µM.
Regarding `O=C(O)Cc1csc2cc(OCc3ccc(COc4ccc(C(F)(F)F)cc4)cc3)ccc12`, inhibition in test [1] was half-maximal at 0.229 µM (IC50). This IC50 lies about 4.2-fold lower than the previous one.
In the case of `O=C(O)Cc1coc2cc(OCc3cccc(COc4ccc(C(F)(F)F)cc4)c3)ccc12`, in test [1], it took 2.5 µM to reach half-maximal inhibition (IC50).
As to `O=C(O)Cc1coc2cc(OCc3ccc(COc4ccc(C(F)(F)F)cc4)cc3)ccc12`, the IC50 in test [1] turned out to be 2.38 µM; in test [2], 0.081 µM. Besides, the EC50 in test [3] came out at 3.44 µM.
As to `Cc1nc(C(F)(F)F)sc1COc1ccc2c(ccn2CC(=O)O)c1`, the IC50 in test [1] was 0.55 µM; in test [2] it was 0.0068 µM. The EC50 in test [3] is 0.223 µM.
`Cc1nc(-c2ccc(C(F)(F)F)cc2)sc1COc1ccc2c(CC(=O)O)coc2c1`: the IC50 in test [1] amounted to 0.679 µM; in test [2] it was 0.014 µM. In test [3], this molecule returned an EC50 of 0.243 µM.
On to `O=C(O)Cc1coc2cc(OCc3cc(-c4ccc(Cl)cc4)on3)ccc12`, for which the results for the IC50 in test [1] and in test [2] were 2.38 µM and 0.081 µM, respectively. Moreover, in test [3], the midpoint of the response, the EC50, lay at 0.323 µM.
On to `Cc1cc2c(CC(=O)O)csc2cc1OCc1sc(-c2ccc(C(F)(F)F)cc2)nc1C`, for which the IC50 was 0.683 µM in test [1] and 0.237 µM in test [2].
Regarding `Cc1cc(OCc2cc(-c3ccc(Cl)cc3)on2)cc2scc(CC(=O)O)c12`, the IC50 in test [1] was 0.311 µM; in test [2] it was 0.023 µM. Besides, in test [3], the midpoint of the response, the EC50, lay at 0.638 µM.
The corresponding values for `O=C(O)Cc1csc2cc(OCc3cc(-c4ccc(C(F)(F)F)cc4)on3)ccc12` are 0.261 µM, 0.011 µM and 0.305 µM.
On to `O=C(O)Cn1ccc2cc(OCc3ccc(Oc4ccc(C(F)(F)F)cc4)cc3)ccc21`, for which the IC50 in test [1] turned out to be 0.562 µM; in test [2], 0.091 µM. In test [3], this molecule registered an EC50 of 2.81 µM.
Regarding `O=C(O)Cc1csc2cc(OCc3cc(-c4ccc(C(F)(F)F)cc4)on3)cc(Cl)c12`, the values for the IC50 in test [1] and in test [2] were 1.35 µM and 0.097 µM, respectively. In test [3], the EC50 is 2.36 µM.
Turning to `O=C(O)Cc1coc2cc(OCc3ccccc3COc3ccc(C(F)(F)F)cc3)ccc12`, the IC50 in test [1] was greater than 10 µM; in test [2] it was 0.662 µM. In addition, the midpoint of the response in test [3], the EC50, lay at 3.12 µM.
For `O=C(O)Cn1ccc2cc(OCc3cc(-c4ccc(C(F)(F)F)cc4)on3)ccc21`, the IC50 is 0.835 µM in test [1] and 0.031 µM in test [2]. Further, it took 1.39 µM to reach a half-maximal effect in test [3] (EC50).

For the origin of these results see ChEMBL document CHEMBL1149526, “Synthesis and SAR of selective benzothiophene, benzofuran, and indole-based peroxisome proliferator-activated receptor delta agonists” (Bioorg Med Chem Lett, 2007).
